# Measurements: patent US20110118298A1, “COMPOSITIONS, KITS, AND METHODS FOR IDENTIFICATION, ASSESSMENT, PREVENTION, AND THERAPY OF CANCER” (INFINITY PHARMACEUTICALS, INC., priority 2009, published 2011)
# Entries after “also recorded” stand apart in the source; their conditions may differ. Where a name gives a salt, the structure may show the parent alone. Marks after values point to notes of the source that are not given here.
# Key:
# [1] = test system: EGFR mutant tumors with T790M resistant clones; assay: In vivo model of emerging EGFR TKI resistance (T790M)
# [2] = test system: Colo201 (mutant BRAF) xenograft; assay: Colo201 xenograft, 17-AG, Irinotecan and combination; type: in vivo, nude mice
# Experimental: In the sixth set of studies, subcutaneous xenografts of Colo201 (mutant BRAF) were established by implantation of 10×10^6 cells into the right flank of nude mice. Once tumors reached approximately 100-150 mm^3, animals were randomized into treatment groups and administered either vehicle or a suspension of 50% 17-AG in HPMC-AS-HG dispersion in vehicle (1% hydroxyethylcellulose, 5% glycerol) (100 mg/kg, M-W-F, 3 weeks), Irinotecan (100 mg/kg, Q7D, 3 weeks) or the combination of a suspension of 50% 17-AG in HPMC-AS-HG dispersion in vehicle (1% hydroxyethylcellulose, 5% glycerol) (50 mg/kg, M-W-F) and Irinotecan (75 mg/kg, Q7D) for three weeks, and tumor volume measured twice per week (FIG. 26A; FIG. 26B is a zoomed-in section of FIG. 26A). At the end of the dosing period, animals were monitored for an additional 57 days to follow tumor growth delay. […] Similar results to those described above for the Colo201 model were also observed in two separate colorectal models (HCT-116 and DuDu1, […]) (Experiments 7 and 8).
# 293FT^ALK tumors = assay: Xenograft of EML4-ALK expressing 293FT cells; details: 100 mg/kg IPI-504 twice weekly for 2 weeks
# Experimental: Results are presented as means and SEM (n=8).
# Tumors were measured once per week with digital calipers and tumor volume was determined using the formula: (length×width)/2. […] Tumor volumes were assessed as described above.
# [3] = test system: non-small cell lung cancer (NSCLC); assay: Phase II study of IPI-504 monotherapy in advanced NSCLC after EGFR TKI therapy: response and PFS; type: in vivo, human
# Description: Patients with advanced NSCLC, prior treatment with EGFR TKIs, and tumor tissue available for molecular genotyping were enrolled in this prospective, non-randomized, multicenter, phase II study of IPI-504 monotherapy. The primary outcome was objective response rate. Secondary aims included safety, progression-free survival (PFS), and analysis of activity by molecular subtypes.
# Each genotype-defined arm of the trial (mutant EGFR cohort or wild-type EGFR cohort) functioned as a Simon two-stage study with planned interim evaluation after 10 patients and expanded enrollment of an additional 19 patients (a total of 29 patients) if there was at least one patient with a complete response (CR), partial response (PR) or stable disease (SD) lasting 3 months. As pre-defined EGFR genotype was not a requirement at study entry, the trial remained open until both cohorts fully enrolled, which led to over-enrollment of the wild-type arm. Secondary aims included describing the safety and progression-free survival (PFS) of the regimen, and examining molecular markers associated with response.
# Patients were recruited between December 2007 and May 2009 from ten US cancer centers. To be eligible, patients had to have stage IIIB (with pleural effusion), or stage 1V NSCLC with progression on EGFR TKI therapy at some point in their history; adequate baseline renal, hepatic, and bone marrow function; Eastern Cooperative Oncology Group performance status (PS) of 0-2; measurable disease by RECIST 1.0; no active or untreated central nervous system (brain) metastases; no significant cardiac conduction abnormalities; no ongoing keratoconjunctivitis; and either previously defined EGFR genotype or sufficient tumor tissue to undergo genotype assessment, for example, EGFR mutation analysis (EGFR status not required for study entry) (Therasse, P. et al. (2000) J Natl Cancer Inst 92, 205-216; Oken, M. M. et al. (1982) Am J Clin Oncol. 5:649-655). Patients had experienced prior EGFR TKI therapy and there was no limit on prior therapies. All patients signed a written informed consent and the study was monitored by all local institutional review boards. Funding for the trial was provided by Infinity Pharmaceuticals, Inc.
# Treatment consisted of a 30-minute infusion of intravenous IPI-504 on days 1, 4, 8 and 11 of a 21-day cycle. Therapy continued until progressive disease (PD), intolerable side effects, or elective withdrawal. A total of 76 patients were enrolled. The starting dose was 400 mg/m^2 for 75 patients. In April 2009, the dose for patients who were on study (19 patients) was lowered to 225 mg/m^2, due to hepatotoxicities observed at the 400 mg/m^2 dose in a separate trial of IPI-504 in patients with gastrointestinal stromal tumors (GIST) (Demetri G. D. et al. Final results from a phase III study of IPI-504 (retaspimycin hydrochloride) versus placebo in patients with gastrointestinal stromal tumors (GIST) following failure of kinase inhibitor therapies. Paper presented at: Gastrointestinal Cancers Symposium; Jan. 22-24, 2010, 2010; Orlando, Fla.), and the last enrolled patient started at a dose of 225 mg/m^2.
# All patients were assessed for safety by history, physical examination, blood chemistries, liver function tests and blood counts, at baseline and prior to each infusion. Amylase and lipase were assessed if there were symptoms of pancreatitis. Adverse events were graded using the NCl common toxicity criteria version 3.0 (NCl. Common terminology criteria for adverse events (CTCAE) version 3.0 Aug. 9, 2006). Slit lamp eye examinations were performed during screening and electrocardiograms were obtained during screening and before and after the first infusion, to evaluate for keratitis and QTc prolongation, respectively. Radiographic evaluation of tumor response by CT-scan was performed after every 2 cycles. All films were reviewed and independently assessed by a central radiology core laboratory. […]
# H3122R cells = assay: Growth inhibition of cells selected for resistance to PF-1066; type: cell-based, human
smiles,measurement,setting,value
"CO[C@H]1/C=C\C=C(/C)C(=O)NC2=CC(=O)C(N)=C(C[C@@H](C)C[C@H](OC)[C@H](O)[C@@H](C)/C=C(\C)[C@@H]1OC(N)=O)C2=O [IPI-493, 17-AG]",tumor growth inhibition,[1]; compared with gefitinib treatment alone,61%
same,animals still on study,[1]; day 45,~40%
same,complete responses (complete disappearance of a palpable tumor),"[2]; combination 50 + 75 mg/kg, single agents 100 mg/kg each",no complete responses
same,TGI while on drug,"[2]; single agent, 17-AG 100 mg/kg M-W-F or Irinotecan 100 mg/kg Q7D, 3 weeks",~88%
"C=CCNc1c(O)cc2c(O)c1C[C@@H](C)C[C@H](OC)[C@H](O)[C@@H](C)/C=C(\C)[C@H](OC(N)=O)[C@@H](OC)/C=C\C=C(/C)C(=O)N2 [IPI-504, retaspimycin hydrochloride]","tumor growth, EML4-ALK containing 293FT tumors",293FT^ALK tumors,significant growth inhibition
same,time on IPI-504 without progression or death,[3]; 3 patients with ALK rearrangements,approximately 7 months
same,RECIST Stable Disease or better for at least 3 months,[3]; ALK No Rearrangement Detected,3 (25) n [%]
same,Objective Response Rate (All PRs),"[3]; ALK No Rearrangement Detected, 12 patients",1 (8) n [%]
same,Median PFS,"[3]; ALK No Rearrangement Detected, no unit in table",2.43
same,RECIST Stable Disease or better for at least 3 months,[3]; ALK Rearrangement Detected,3 (100) n [%]
same,Objective Response Rate (All PRs),"[3]; ALK Rearrangement Detected, 3 patients",2 (67) n [%]
same,RECIST Stable Disease or better for at least 3 months,[3]; EGFR Mutant,6 (21) n [%]
same,Objective Response Rate (All PRs),"[3]; EGFR Mutant, 28 patients",1 (4) n [%]
same,Median PFS,"[3]; EGFR Mutant, no unit in table",2.76
same,RECIST Stable Disease or better for at least 3 months,[3]; EGFR Wild Type,10 (25) n [%]
same,Objective Response Rate (All PRs),"[3]; EGFR Wild Type, 40 patients",4 (10) n [%]
same,Median PFS,"[3]; EGFR Wild Type, no unit in table",2.86
same,response rate,[3]; EGFR wild-type patients,10%
same,RECIST Stable Disease or better for at least 3 months,[3]; KRAS Mutant,5 (42) n [%]
same,Objective Response Rate (All PRs),"[3]; KRAS Mutant, 12 patients",0 (0) n [%]
same,Median PFS,"[3]; KRAS Mutant, no unit in table",3.91
same,RECIST Stable Disease or better for at least 3 months,[3]; KRAS Wild Type,4 (15) n [%]
same,Objective Response Rate (All PRs),"[3]; KRAS Wild Type, 26 patients",3 (12)* n [%]
same,Median PFS,"[3]; KRAS Wild Type, no unit in table",2.86
same,response rate,[3]; KRAS wild-type patients,12%
same,Objective Response Rate (All PRs),"[3]; Total, 76 patients",5 (7) n [%]
same,RECIST Stable Disease or better for at least 3 months,"[3]; Total, 76 patients",18 (24) n [%]
same,Median PFS,"[3]; Total, no unit in table, months",2.86
same,Median PFS,[3]; all patients,2.86 months
same,patients with partial response,[3]; of the 3 patients with an ALK gene rearrangement,2 patients
same,overall response rate,[3]; overall study population,7%
same,response rate,[3]; patients with EGFR mutations,4%
same,response rate,[3]; patients with an ALK rearrangement,67%
same,reduction in tumor size,[3]; third patient with ALK rearrangement (stable disease),24%
same,GI50,"H3122R cells; Homo sapiens, NCI-H3122, read-out: Res. H3122 (GI50, nM)",76 nM
same,sensitivity of H3122R cells,H3122R cells; hydrochloride,remained sensitive; also recorded: retain sensitivity
